Literature values, collected in publication PMC7395068, “The evolution of strategies to minimise the risk of human drug-induced liver injury (DILI) in drug discovery and development” (Archives of Toxicology, 2020).
Where two headings read alike, the source gives them in different places.

Experiments:
[1] = cited from earlier work
HepG2 cells [2] = settings: In vitro Assay; ref O'Brien 2006; cited from earlier work
HepG2 cells [3] = settings: In vitro Assay; ref Persson 2013; cited from earlier work
human hepatocytes = settings: cited from earlier work
[4] = tested on: THLE or HepG2 cells, isolated mitochondria, BSEP; settings: cited from earlier work
PHH spheroids = settings: In vitro Assay; ref Vorrink 2018; cited from earlier work
[5] = cited from earlier work; remark: listed apart in the source
[6] = tested on: isolated mouse liver mitochondria; settings: In vitro Assay; ref Porceddu 2012; cited from earlier work
[7] = cited from earlier work; remark: listed apart in the source
[8] = tested on: THLE-Null and THLE-3A4 cells; settings: In vitro Assay; ref Gustafsson 2014; cited from earlier work
rBsep = settings: In vitro Assay; ref Dawson 2012; cited from earlier work
[9] = tested on: HepG2 cells, primary human hepatocytes; settings: cited from earlier work
[10] = In vitro Assay, ref Garside 2014

Row | SMILES | DILI +VE (5-8), DILI -VE (-4) ([1]; ref Chen 2016) | DILI severity category ([1]; ref Chen 2016) | Structural based (HCI) (HepG2 cells [2]) | Structural based (HCI) (human hepatocytes; In vitro Assay, ref Xu 2008) | Partition Hybrid HRM Score ([4]; In vitro Assay, ref Aleo 2019) | Ro2 Hybrid HRM Score ([4]; In vitro Assay, ref Aleo 2019) | hLiMTs ATP <20 x Cmax (PHH spheroids) | In vivo DILI ([5]; […]) | In vivo DILI ([5]; ref Aleo 2019) | In vivo DILI ([5]; ref O'Brien 2006) | In vivo DILI ([5]; ref Porceddu 2012) | In vivo DILI ([5]; ref Xu 2008) | in vitro data EC2<=1x Cmax [6] | in vitro data EC20<=2uM [6] | DILI Score (FDA) (1-8) ([7]; ref Chen 2011) | DILI +VE (5-8), DILI -VE (-4) ([1]; in vivo) | DILI severity category ([1]; in vivo) | DILI Score (FDA) (1-8) ([7]; in vivo) | THLE-Null [8] | In vivo DILI ([5]; ref Garside 2014) | other results
1 | Sc1ncnc2nc[nH]c12 [mercaptopurine] | +VE | vMost-DILI-Concern | +VE | -VE | +VE | +VE | +VE (IC20 < 20 × Cmax.tot cut-off) | +VE | +VE | +VE | +VE | +VE | -VE | +VE | 8 |  |  |  |  |  | Cluser analysis (HepG2 cells [3]): +VE; Structural based (HCI) (HepG2 cells [3]): +VE; In vivo DILI ([5]; ref Persson 2013): +VE; In vivo DILI ([5]; ref Vorrink 2018): +VE
2 | Cc1cccc(C)c1OCC(C)N (centres unmarked) [mexiletine] |  |  |  |  |  |  | +VE (IC20 < 20 × Cmax.tot cut-off) |  |  |  |  |  |  |  |  | +VE | vMost-DILI-Concern | 3 |  |  | Structural based (HCI) (human hepatocytes): +VE; In vivo DILI ([5]; in vivo): +VE
3 | O=C1CC[C@@]2(O)[C@H]3Cc4ccc(O)c5c4[C@@]2(CCN3CC2CC2)[C@H]1O5 [naltrexone] |  |  |  | -VE |  |  |  |  |  |  |  |  |  |  |  | -VE | Ambiguous DILI-concern | 3 | -VE |  | In vivo DILI ([5]; in vivo): +VE; THLE-Null/3A4 [8]: -VE
4 | CNC(=C[N+](=O)[O-])NCCSCc1ccc(CN(C)C)o1 [ranitidine] | +VE | vLess-DILI-Concern |  |  | -VE | -VE |  | +VE | +VE |  | +VE | -VE | +VE | -VE | 5 |  |  |  | -VE | +VE | In vivo DILI ([5]; ref Dawson 2012): +VE; In vivo DILI ([5]; ref Gustafsson 2014): +VE; Inhibition of rBsep cutoff<1& cmax u>.2 (rBsep): -VE; Inhibition of rBsep cutoff<3 (rBsep): -VE
5 | CO[C@H]1/C=C/O[C@@]2(C)Oc3c(C)c(O)c4c(O)c(c(/C=N/N5CCN(C)CC5)c(O)c4c3C2=O)NC(=O)/C(C)=C\C=C\[C@H](C)[C@H](O)[C@@H](C)[C@@H](O)[C@@H](C)[C@H](OC(C)=O)[C@@H]1C [rifampin] | +VE | vMost-DILI-Concern |  |  | +VE | +VE |  | +VE | +VE |  |  |  |  |  | 8 |  |  |  |  | +VE | Cluster 1-6 +VE Assay [9, 10]: -VE
6 | CN(C/C=C/C#CC(C)(C)C)Cc1cccc2ccccc12 [terbinafine] | +VE | vMost-DILI-Concern | +VE |  |  |  |  |  |  | +VE | +VE |  | +VE | +VE | 8 |  |  |  | +VE | +VE | In vivo DILI ([5]; ref Gustafsson 2014): +VE; THLE-Null/3A4 [8]: -VE; Cluster 1-6 +VE Assay [9, 10]: -VE
7 | CN(C)[C@@H]1C(O)=C(C(N)=O)C(=O)[C@@]2(O)C(O)=C3C(=O)c4c(O)cccc4[C@@](C)(O)[C@H]3C[C@@H]12 [tetracycline] |  |  |  |  |  |  | +VE (IC20 < 20 × Cmax.tot cut-off) |  |  |  |  |  |  |  |  | +VE | vLess-DILI-Concern | 2 |  |  | Structural based (HCI) (human hepatocytes): +VE; Cluster 1-6 +VE Assay [9]: -VE
8 | CN1CCN(CCCN2c3ccccc3Sc3ccc(C(F)(F)F)cc32)CC1 [trifluoperazine, reference compound] | -VE | Ambiguous DILI-concern | -VE | +VE |  |  | -VE |  |  | +VE |  | +VE |  |  | 2 |  |  |  |  | +VE | in vivo DILI classification in publications of Supplemental Table 1 ([5]; publications disagreeing with the LTKB classification, ref Supplemental Table 1 publications): DILI positive in vivo; In vivo DILI ([5]; ref Vorrink 2018): +VE; Cluster 1-6 +VE Assay [9, 10]: +VE
9 | COc1ccc(C(CN(C)C)C2(O)CCCCC2)cc1 (centres unmarked) [venlafaxine] |  |  |  |  |  |  |  |  |  |  |  |  |  |  |  | +VE | vLess-DILI-Concern | 7 |  |  | Partition Hybrid HRM Score [4]: +VE; Ro2 Hybrid HRM Score [4]: +VE; Cluster 1-6 +VE Assay [9]: -VE
